The target of the assay is T1, NKCC1 (Homo sapiens, UniProt P55011).
T1 construct: endogenous in cells; host or cells: native HEK293 cells
T1 sequence (P55011 1-1212): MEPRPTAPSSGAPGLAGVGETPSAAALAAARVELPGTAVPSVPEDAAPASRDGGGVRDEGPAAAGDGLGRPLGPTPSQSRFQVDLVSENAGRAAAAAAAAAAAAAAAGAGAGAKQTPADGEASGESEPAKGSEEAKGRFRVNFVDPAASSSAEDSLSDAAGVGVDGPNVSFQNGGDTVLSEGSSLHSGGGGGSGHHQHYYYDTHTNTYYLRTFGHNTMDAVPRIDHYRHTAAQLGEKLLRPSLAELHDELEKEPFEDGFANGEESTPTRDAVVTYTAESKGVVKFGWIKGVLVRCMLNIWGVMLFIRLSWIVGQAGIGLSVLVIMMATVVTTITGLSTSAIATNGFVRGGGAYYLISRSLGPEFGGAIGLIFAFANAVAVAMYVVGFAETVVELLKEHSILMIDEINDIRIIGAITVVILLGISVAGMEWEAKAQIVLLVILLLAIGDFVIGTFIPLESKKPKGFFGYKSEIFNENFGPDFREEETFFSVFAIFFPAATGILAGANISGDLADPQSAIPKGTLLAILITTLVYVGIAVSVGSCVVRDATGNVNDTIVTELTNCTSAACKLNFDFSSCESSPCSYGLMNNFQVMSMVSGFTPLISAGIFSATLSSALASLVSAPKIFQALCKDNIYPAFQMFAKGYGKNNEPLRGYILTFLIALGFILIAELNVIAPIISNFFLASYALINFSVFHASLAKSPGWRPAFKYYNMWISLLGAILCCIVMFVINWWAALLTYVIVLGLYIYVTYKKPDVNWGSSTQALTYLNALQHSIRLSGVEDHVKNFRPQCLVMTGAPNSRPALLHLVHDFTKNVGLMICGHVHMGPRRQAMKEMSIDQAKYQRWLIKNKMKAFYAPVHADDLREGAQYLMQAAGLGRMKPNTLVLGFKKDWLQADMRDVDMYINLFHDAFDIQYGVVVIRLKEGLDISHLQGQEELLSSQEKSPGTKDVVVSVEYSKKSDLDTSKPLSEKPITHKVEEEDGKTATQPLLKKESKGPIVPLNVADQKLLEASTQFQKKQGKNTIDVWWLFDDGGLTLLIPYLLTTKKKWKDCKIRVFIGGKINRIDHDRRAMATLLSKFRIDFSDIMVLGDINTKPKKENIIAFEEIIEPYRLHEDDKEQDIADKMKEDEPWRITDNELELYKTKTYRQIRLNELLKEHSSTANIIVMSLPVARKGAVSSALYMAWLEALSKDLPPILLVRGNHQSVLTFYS
Description: NKCC1-mediated K+ influx (83Rb tracer uptake) in native HEK293 cells, hypertonic saline, 100 μM ouabain. The class given is cell-based. Particulars: HEK293, no drug = 1000, 20 μM bumetanide = 0; for inhibition at 2 µM: read-out: NKCC1 mediated flux inhibition at 2 μM (%); for inhibition at 20 µM: read-out: NKCC1 mediated flux inhibition at 20 μM (%). The text has this:
The compounds of the invention have been tested for evaluating their potency in inhibiting the NKCC1 channel. The test used is a cellular assay expressing the NKCC1 channel: HEK293 cells are human cells derived from embryonic kidney. The inhibitory activity of the compounds has been evaluated in measuring the modification of the potassium flux at 2 concentrations, as described hereafter in the biological protocol.
HEK293 cells are human cells derived from embryonic kidney. They express at their plasma membranes proteins that transport potassium (K^+). Among these proteins is the Na—K-2Cl cotransporter or NKCC1. This transporter contributes to 40-50% of K^+ influx into the cells. The remaining of K^+ transport is mediated by the Na^+/K^+-ATPase (also known as Na^+ pump or Na^+/K^+ pump), which also contributes some 40-50% of the influx basal flux of 5-10%, which is mainly due to K^+ channels (FIG. 1A). Thus, the HEK293 cell in culture is an ideal model to study the function of NKCC1 and test compounds that inhibits its transport.
The assay to measure NKCC1 function was optimized to obtain the next signal to noise ratio: • a. A slightly hypertonic saline was used to stimulate NKCC1 function. […] By consistent use of this simple manipulation, the NKCC1 signal was enhanced. • b. Ouabain, an inhibitor of the Na^+/K^+ pump, was used at 100 μM. […] A radioactive isotope was used to trace the inward movement of K^+ into the cell (influx). This allowed for highly precise measurements of K^+ influx. Because radioactive isotopes of K^+ had very short half-lives, radioactive isotopes of Rb^+ were used. Rubidium was a monovalent cation which was readily transporter at the K^+ binding site by many transporters and channels. Rb^+ was a congener of K^+, being transported undistinguishably from K^+. ^83Rb (half-life of 83 days) was used since ^86Rb (half-life of 19.6 days) is no longer commercially available. The ^83Rb isotope was used as a tracer, i.e. at a very low amounts to trace the movement of K^+.
K^+ influx measured in native HEK293 was in the range of 7000-9000 pmoles K^+ per mg protein per min. In the presence of 20 μM Ref 1, the flux was reduced to 600-900 pmoles K^+ per mg protein per min. Thus, there was a very solid dynamic range. In each experiment, the flux without Ref 1 was set at 1000 (equivalent to 100.0%) and the flux with 20 μM bumetanide was set at 0 (equivalent to 0%).
For the flux experiments, 35-mm culture dishes were coated with 0.1 mg/mL poly-L-lysine and placed in large 20×20 [square] dishes. For convenience, the poly-L-lysine was placed in the dishes the day before the experiment. Before plating the cells, the poly-L-lysine was aspirated, and each dish washed twice with 1 mL sterile water. Cells from 3 confluent 10-cm dishes were detached with trypsin and resuspended into 49 mL complete medium. Cells (2 mL/35-mm dish) were plated in 24 dishes and allowed to attach for at least 2 hours prior to the flux. This setup allowed the measurement of 8 conditions in triplicates. For the flux, culture medium was aspirated and replaced with 1 mL saline for a preincubation period of 15 min. The saline was aspirated and replaced with 1 mL identical saline containing 0.25 μCi/mL 83Rb for 15 min. Following the uptake period, the radioactive solution was aspirated, and the cells washed 3 times with ice-cold saline. Cells were then lyzed with 500 μl 0.25N NaOH for 1 hour, neutralized with 250 μL glacial acetic acid and 300 μL and 30 μL aliquots were used for μ-scintillation counting and protein assays, respectively. Two 5 μL of each flux solution was used to determine cpm and relate those cpm to nmoles K^+. Potassium influx was expressed in nmoles K^+ per mg protein per min. Note that within an experiment, groups of 3 dishes were separated 2 min apart for easy handling. Also note that since all dishes were plated with a homogeneous cell suspension, and all dishes were identical, the protein content was measured from a subset of dishes. […]

Data on 19 compounds can be found in patent US20260374782A1, “NEW COMPOUNDS, PROCESSES FOR PREPARING THE SAME AND THEIR USE AS DRUGS” (B&A ONCOMEDICAL, priority 2022, published 2026).

SMILES strings stand for the structures. Some results are limits rather than exact numbers.

As for `CCCCNc1cc(C(=O)OC)cc(S(=N)(=O)NCCCC)c1Oc1ccccc1` (stereo not shown) [Compound 46, methyl 3-(butylamino)-5-(butylaminosulfonimidoyl)-4-phenoxy-benzoate], the inhibition (commonly the change of the read-out against control, counted positive when it falls) at 2 µM was 30 to 50% and the inhibition at 20 µM fell in the range of 30 to 50%.
On to `CCCCNc1cc(C(=O)OC)cc(S(=N)(=O)NC23CC(C2)C3)c1Oc1ccccc1` (stereo not shown) [Compound 47, methyl 3-[(1-bicyclo[1.1.1]pentanylamino)sulfonimidoyl]-5-(butylamino)-4-phenoxy-benzoate], for which the inhibition at 2 µM was in the range of 30 to 50% and the inhibition at 20 µM was in the range of 30 to 50%.
In the case of `CCCCNc1cc(C(=O)OC)cc(S(=N)(=O)NC2CN3CCC2CC3)c1Oc1ccccc1` (stereo not shown) [Compound 48, methyl 3-(butylamino)-4-phenoxy-5-[(quinuclidin-3-ylamino)sulfonimidoyl]benzoate], the inhibition at 2 µM was in the range of 30 to 50% and the inhibition at 20 µM fell in the range of 50 to 75%.
In the same order, the values of `CCCCNc1cc(C(=O)OC)cc(S(=N)(=O)NCC2CCN(C(C)=O)CC2)c1Oc1ccccc1` (stereo not shown) [Compound 49, methyl 3-[[(1-acetyl-4-piperidyl)methylamino]sulfonimidoyl]-5-(butylamino)-4-phenoxy-benzoate] are 30 to 50% and 10 to 30%.
On to `CCCCNc1cc(C(=O)OC)cc(S(=N)(=O)NCC2CCN(C)CC2)c1Oc1ccccc1` (stereo not shown) [Compound 50, methyl 3-(butylamino)-5-[[(1-methyl-4-piperidyl)methylamino]sulfonimidoyl]-4-phenoxy-benzoate], for which the inhibition at 2 µM was 30 to 50% and the inhibition at 20 µM fell in the range of 30 to 50%.
For `CCCCNc1cc(C(=O)O)cc(S(=N)(=O)N(C)C)c1Oc1ccccc1` (stereo not shown) [Compound 52, 3-(butylamino)-5-(dimethylaminosulfonimidoyl)-4-phenoxy-benzoic acid], the inhibition at 2 µM lay in the range of 30 to 50% and the inhibition at 20 µM was in the range of 50 to 75%.
In the same order, the values of `CCCCNc1cc(C(=O)O)cc(S(=N)(=O)N2CCCC2)c1Oc1ccccc1` (stereo not shown) [Compound 53, 3-(butylamino)-4-phenoxy-5-(pyrrolidin-1-ylsulfonimidoyl)benzoic acid] are 30 to 50% and at least 75%.
In the same order, the values of `CCCCNc1cc(C(=O)O)cc(S(=N)(=O)N2CCCCC2)c1Oc1ccccc1` (stereo not shown) [Compound 54, 3-(butylamino)-4-phenoxy-5-(1-piperidylsulfonimidoyl)benzoic acid] are 30 to 50% and at least 75%.
As for `CCCCNc1cc(C(=O)O)cc(S(=N)(=O)N(C)CC)c1Oc1ccccc1` (stereo not shown) [Compound 55, 3-(butylamino)-5-[[ethyl(methyl)amino]sulfonimidoyl]-4-phenoxy-benzoic acid], the inhibition at 20 µM lay in the range of 50 to 75%.
Take `CCCCNc1cc(C(=O)O)cc(S(=N)(=O)N2CCOCC2)c1Oc1ccccc1` (stereo not shown) [Compound 56, 3-(butylamino)-5-(morpholinosulfonimidoyl)-4-phenoxy-benzoic acid]: the inhibition at 20 µM lay in the range of 30 to 50%.
`CCCCNc1cc(C(=O)O)cc(S(=N)(=O)NCc2ccccc2)c1Oc1ccccc1` (stereo not shown) [Compound 58, 3-[(benzylamino)sulfonimidoyl]-5-(butylamino)-4-phenoxy-benzoic acid]: the inhibition at 2 µM is 30 to 50% and the inhibition at 20 µM is at least 75%.
`CCCCNc1cc(C(=O)O)cc(S(=N)(=O)NCCOC)c1Oc1ccccc1` (stereo not shown) [Compound 59, 3-(butylamino)-5-[(2-methoxyethylamino)sulfonimidoyl]-4-phenoxy-benzoic acid]: the inhibition at 20 µM was 50 to 75%.
For `CCCCNc1cc(C(=O)O)cc(S(=N)(=O)NC2CC2)c1Oc1ccccc1` (stereo not shown) [Compound 60, 3-(butylamino)-5-[(cyclopropylamino)sulfonimidoyl]-4-phenoxy-benzoic acid], the inhibition at 2 µM lay within 10 to 30% and the inhibition at 20 µM lay within 50 to 75%.
In the same order, the values of `CCCCNc1cc(C(=O)O)cc(S(=N)(=O)N2CCCCCC2)c1Oc1ccccc1` (stereo not shown) [Compound 61, 3-(azepan-1-ylsulfonimidoyl)-5-(butylamino)-4-phenoxy-benzoic acid] are 30 to 50% and at least 75%.
Take `CCCCNc1cc(C(=O)O)cc(S(=N)(=O)NCC2CCCCC2)c1Oc1ccccc1` (stereo not shown) [Compound 62, 3-(butylamino)-5-[(cyclohexylmethylamino)sulfonimidoyl]-4-phenoxy-benzoic acid]: the inhibition at 2 µM lay within 10 to 30% and the inhibition at 20 µM is at least 75%.
Turning to `CCCCNc1cc(C(=O)O)cc(S(=N)(=O)NCC2CCOCC2)c1Oc1ccccc1` (stereo not shown) [Compound 63, 3-(butylamino)-4-phenoxy-5-[(tetrahydropyran-4-ylmethylamino)sulfonimidoyl]benzoic acid], the inhibition at 20 µM fell in the range of 30 to 50%.
For the compound `CCCCNc1cc(C(=O)O)cc(S(=N)(=O)Nc2cccnc2)c1Oc1ccccc1` (stereo not shown) [Compound 64, 3-(butylamino)-4-phenoxy-5-[(3-pyridylamino)sulfonimidoyl]benzoic acid], the inhibition at 2 µM was 50 to 75% and the inhibition at 20 µM was at least 75%.
Taken in the same sequence, the figures for `CCCCNc1cc(C(=O)O)cc(S(=N)(=O)Nc2cccc(OC)c2)c1Oc1ccccc1` (stereo not shown) [Compound 65, 3-(butylamino)-5-[(3-methoxyanilino)sulfonimidoyl]-4-phenoxy-benzoic acid] were 50 to 75% and at least 75%.
Take `CCCCNc1cc(C(=O)O)cc(S(=N)(=O)N2CCC(c3ccccc3)CC2)c1Oc1ccccc1` (stereo not shown) [Compound 66, 3-(butylamino)-4-phenoxy-5-[(4-phenyl-1-piperidyl)sulfonimidoyl]benzoic acid]: the inhibition at 2 µM was in the range of 30 to 50% and the inhibition at 20 µM is at least 75%.
